Reference: US20260041796A1, “REGULATION OF IMMUNE RESPONSES THROUGH SELECTIVE NEURAL ACTIVATION” (The Trustees of Columbia University in the City of New York, priority 2021, published 2026)

Legend:
[1] = test system: LPS-TRAPed population in the cNST; experiment: Blood cytokine levels after LPS with chemogenetic (DREADD) activation of LPS-TRAPed cNST neurons; type: in vivo
Description: FIG. 12 illustrates the effect of neuronal stimulation in the caudal nucleus of the solitary tract on the immune response. […] Neuronal populations were chemogenetically activated with designer receptor exclusively activated by a designer drug (DREADD) while the animal is given LPS and cytokine levels in the blood were measured. In the control animals, LPS induced the strong release of pro-inflammatory TNFa, reaching 200 pg/ml in the peripheral blood. When this brainstem neuronal population was activated with DREADD, there was a remarkable suppression of pro-inflammatory cytokine release, resulting in 90% reduction in the TNFa in the blood. The same results were obtained for another proinflammatory cytokine, IL-6. In addition to suppressing the release of pro-inflammatory cytokines, activation of this neuronal population markedly increase the release of the anti-inflammatory cytokine, IL-10. Thus, this brain circuit triggers a strong anti-inflammatory response while suppressing pro-inflammatory cytokines. Note that under normal conditions (control) the immune insult triggers a very large induction of pro-inflammatory cytokines (TNFa; left panels), and this induction is suppressed by activation of the cNST neurons (compare bars). […]
FIG. 19 illustrates that activating cNST-responsive neurons dramatically suppresses inflammatory responses. […] These neurons were artificially activated after LPS using a synthetic drug, CNO, and then cytokine levels in the circulation were analyzed in response to LPS.
It was shown that neurons in the caudal nucleus of the solitary tract (cNST) in the brainstem are activated by peripheral (intraperitoneal) administration of LPS (lipopolysaccharide), a potent inducer of inflammatory responses (FIG. 5). […] Next, to uncover the role of these cNST neurons in immune responses, a chemogenetic silencer was introduced by genetic Trapping, and the effect of silencing these cNST neurons in the emergence of LPS-induced inflammatory responses was evaluated. […]

vagal sensory neurons = experiment: In-vivo calcium imaging (GCaMP6s) of nodose ganglion after intraperitoneal cytokine; details: intraperitoneal injection; no response to saline or glucose
Description: FIG. 7 illustrates a subset of neurons in the nodose ganglion that respond to pro-inflammatory cytokines. Calcium responses in vagal sensory neurons expressing the genetically encoded fluorescent calcium indicator GCaMP6s were imaged while administering cytokines intraperitoneally. The platform was modified to image the response of vagal sensory neurons to cytokines. The cytokine was administered via intraperitoneal injection and calcium activity in the nodose ganglion was monitored. Heat maps depicting z-score-normalized fluorescence traces from vagal neurons identified as responders of proinflammatory cytokine (TNFa). Neural activity was detected using an in-vivo calcium imaging platform with genetically encoded calcium indicator GCaMP6 expressed in all vagal sensory neurons. Each trial represents the activity of a single cell. […]
FIG. 8 illustrates a subset of neurons in the nodose ganglion that respond to anti-inflammatory cytokines. Heat maps depicting z-score-normalized fluorescence traces from vagal neurons identified as responders of anti-inflammatory cytokines (IL-4). […] Neural activity was detected using an in-vivo calcium imaging platform with genetically encoded calcium indicator GCaMP6 expressed in all vagal sensory neurons. […] The cytokine was administered via intraperitoneal injection and calcium activity in the nodose ganglion was monitored. […]

[2] = test system: caudal nucleus of the solitary tract (cNST); experiment: Fos induction in the brain after peripheral LPS immune challenge; type: in vivo; details: LPS stimulus vs saline control; c-fos as proxy for neural activity
Text: Peripheral immune challenge evokes brain activities. LPS was used to induce an innate immune response and the brain was examined for the induction of c-fos as a proxy for neural activity. […] When the body experiences bacterial infections, the bacterial membrane component lipopolysaccharide (LPS) triggers strong innate immune response. LPS (right) but not saline control (left) strongly activates cNST (circled area). For each condition, a representative image from N>=3 animals is shown. Scale bar: 100 μm. Strong bilateral c-fos labeling was detected in the caudal nucleus of the solitary tract (cNST) in the brainstem.
A brainstem circuit that functions as a conduit to convey peripheral immune information to the brain was identified. […] Using an activity marker (cFos induction), it was determined that a selective population of neurons in the brain are activated in response to administration of a peripheral immune insult.
It was shown that neurons in the caudal nucleus of the solitary tract (cNST) in the brainstem are activated by peripheral (intraperitoneal) administration of LPS (lipopolysaccharide), a potent inducer of inflammatory responses (FIG. 5). […] Next, to uncover the role of these cNST neurons in immune responses, a chemogenetic silencer was introduced by genetic Trapping, and the effect of silencing these cNST neurons in the emergence of LPS-induced inflammatory responses was evaluated.

[3] = test system: caudal nucleus of the solitary tract (cNST); experiment: TRAP activity-based labelling of LPS-responsive neurons; type: in vivo; details: LPS-treated vs saline treated animals
Text: The activity based labelling strategy, TRAP, was used to identify and access neuronal populations activated during LPS induced inflammation. Neurons TRAPed by LPS (right) but not saline control (left) are seen in the cNST (circled area). For each condition, a representative image from N>=3 animals is shown. Scale bar: 500 μm.
It was shown that neurons in the caudal nucleus of the solitary tract (cNST) in the brainstem are activated by peripheral (intraperitoneal) administration of LPS (lipopolysaccharide), a potent inducer of inflammatory responses (FIG. 5). […] In other words, the brain monitors and modulates immune responses in the body. […] Next, to uncover the role of these cNST neurons in immune responses, a chemogenetic silencer was introduced by genetic Trapping, and the effect of silencing these cNST neurons in the emergence of LPS-induced inflammatory responses was evaluated.

[4] = TRAPed cNST neurons activated after LPS, cytokine levels in the circulation

For `C[N+]1([O-])CCN(C2=Nc3cc(Cl)ccc3Nc3ccccc32)CC1` [CNO, clozapine N-oxide], the “levels of anti-inflammatory cytokines” value [1, 4] was “very large increase” and the “release of pro-inflammatory cytokines” value [1, 4] was “dramatic suppression”.

For TNFa, the “calcium activity in a subset of vagal sensory neurons” value (vagal sensory neurons) was “robust activity”.

For lipopolysaccharide [LPS], the “TNFa in the peripheral blood” value ([1]; control animals given LPS, no neuronal activation) was 200 pg/mL, the “Fos induction in the cNST” value [2] was “Strong Fos induction” and the “labelling of cNST with fluorescence reporter (tdTomato)” value [3] was “Strong labelling”.

B1: IL-4: anti-inflammatory cytokine administered intraperitoneally (protein, UniProt P05112 25-153, looked up)
Interleukin-4: HKCDITLQEIIKTLNSLTEQKTLCTELTVTDIFAASKNTTEKETFCRAATVLRQFYSHHEKDTRCLGATAQQFHRHKQLIRFLKRLDRNLWGLAGLNSCPVKEANQSTLENFLERLKTIMREKYSKCSS
B1 was tested, and the “calcium activity in a subset of vagal sensory neurons” value (vagal sensory neurons) was “robust activity”.
